Experimental data: patent US6903111B2 (priority 2001, dated 2005)

Row | Compound | melting point
1 | O=C(C[C@H](Cc1ccccc1)NS(=O)(=O)C(F)(F)F)N1CC2CCC1CC2 | 155 to 158 °C
2 | O=C(Nc1ccncc1)[C@H](CC(=O)N1CC2CCC1CC2)Cc1ccccc1 | 171 to 172 °C
3 | O=C(O)C(=O)N[C@H](CC(=O)N1CC2CCC1CC2)Cc1ccccc1 | 156 to 159 °C
4 | O=C(O)CC(=O)N[C@H](CC(=O)N1CC2CCC1CC2)Cc1ccccc1 | 149 to 151 °C
5 | CS(=O)(=O)N[C@H](CC(=O)N1CC2CCC1CC2)Cc1ccccc1 | 127 to 129 °C
6 | O=C(C[C@@H](Cc1ccccc1)NS(=O)(=O)C(F)(F)F)N1CC2CCC1CC2 | 128 to 130 °C
7 | CS(=O)(=O)N[C@@H](CC(=O)N1CC2CCC1CC2)Cc1ccccc1 | 129 to 130 °C
8 | O=C(Oc1ccc(NS(=O)(=O)C(F)(F)F)cc1)[C@H](CC(=O)N1CC2CCC1CC2)Cc1ccccc1 | 60 to 62 °C
9 | O=C(Nc1ccc(NS(=O)(=O)C(F)(F)F)cc1)[C@H](CC(=O)N1CC2CCC1CC2)Cc1ccccc1 | 136 to 138 °C
10 | O=C(Nc1nccs1)[C@H](CC(=O)N1CC2CCC1CC2)Cc1ccccc1 | 69 to 72 °C
11 | CCOc1cc(CC(=O)N[C@H](CC(=O)N2CC3CCC2CC3)Cc2ccccc2)ccc1C(=O)O | 100 to 103 °C
12 | O=C(Cc1ccc(NS(=O)(=O)C(F)(F)F)cc1)N[C@H](CC(=O)N1CC2CCC1CC2)Cc1ccccc1 | 78 to 80 °C
13 | O=C(Cc1ccc(NC(=O)C(=O)O)cc1)N[C@@H](CC(=O)N1CC2CCC1CC2)Cc1ccccc1 | 79 to 80 °C
14 | O=C(O)C(=O)Nc1ccc(C(=O)N[C@@H](CC(=O)N2CC3CCC2CC3)Cc2ccccc2)cc1 | 200 to 201 °C
15 | O=C(O)/C=C/[C@H](CC(=O)N1CC2CCC1CC2)Cc1ccccc1 | 52 to 53 °C
16 | O=C(O)CC[C@H](CC(=O)N1CC2CCC1CC2)Cc1ccccc1 | 79 to 81 °C
17 | O=C(Nc1cc(F)c(O)c(F)c1)[C@H](CC(=O)N1CC2CCC1CC2)Cc1ccccc1 | 118 to 120 °C

Row | Compound | melting point
18 | O=C(O)C(C[C@H](CC(=O)N1CC2CCC1CC2)CC1CCCCC1)C(=O)O | 84 to 85 °C
19 | O=C(O)[C@H](CC(=O)N1CC2CCC1CC2)Oc1ccccc1 | 140 to 142 °C
20 | O=C(O)C(C[C@H](CC(=O)N1CC2CCC1CC2)Cc1ccccc1)C(=O)O | 78 to 80 °C
21 | O=C(O)C(O)[C@H](CC(=O)N1CC2CCC1CC2)Cc1ccccc1 (stereo partly drawn) | 60 to 61 °C
22 | O=C(Nc1nccs1)[C@H](CC(=O)N1CC2CCC1CC2)Oc1ccccc1 | 60 to 65 °C
23 | O=C(C[C@H](Cc1ccccc1)Nc1c(O)c(=O)c1=O)N1CC2CCC1CC2 | 156 to 158 °C
24 | O=C(C[C@@H](C=NOS(=O)(=O)O)Cc1ccccc1)N1CC2CCC1CC2 | 148 to 151 °C
25 | O=C(O)[C@@H](CCOc1ccccc1)CC(=O)N1CC2CCC1CC2 | 117 to 119 °C
26 | O=C(O)[C@H](CCOc1ccccc1)CC(=O)N1CC2CCC1CC2 | 115 to 117 °C
27 | O=C(O)[C@H](CC(=O)N1CC2CCC1CC2)Cc1ccccc1 [Compound 1, (2S)-2-benzyl-4-(isoquinuclidin-2-yl)-4-oxo-butanoic acid] | 93 to 95 °C
28 | O=C([O-])[C@H](CC(=O)N1CC2CCC1CC2)Cc1ccccc1.[Na+] [Compound 11] | > 250 °C
29 | O=C(OC1CCCCC1)[C@H](CC(=O)N1CC2CCC1CC2)Cc1ccccc1 [Compound 14] | 92 to 95 °C
30 | O=C(Oc1ccccc1)[C@H](CC(=O)N1CC2CCC1CC2)Cc1ccccc1 [Compound 15, (2S)-2-benzyl-4-(isoquinuclidin-2-yl)-4-oxo-butanoic acid phenylester] | 112 to 113 °C
31 | O=C(Oc1ccc(O)cc1)[C@H](CC(=O)N1CC2CCC1CC2)Cc1ccccc1 [Compound 18, p-hydroxy phenyl (2S)-2-benzyl-4-(isoquinuclidine-2-yl)-4-oxo-butyrate] | 61 to 64 °C
32 | O=C(O)[C@H](CCN1CC2CCC1CC2)Cc1ccccc1 [Compound 47] | 171 to 174 °C
33 | CN(c1c(O)c(=O)c1=O)[C@H](CC(=O)N1CC2CCC1CC2)Cc1ccccc1 [Compound 52, N-(3-hydroxy-3-cyclobutene-1,2-dione-4-yl)-N-methyl-(1S)-[2-(isoquinuclidin-2-yl)-2-oxo-ethyl]-phenyl ethylamine] | 153 to 155 °C
